Experimental data reported in patent US20190249218A1, “Method, Medium and Kit for Detecting Multiple Aminoglycoside Resistance Including 16S rRNA Methylase Mediated Resistance in Gram-Negative Bacteria” (priority 2016, published 2019).
Values after ≈ are worked out from the molar mass of the structure shown. Like-named read-outs stand apart in the source and are kept apart here.

Experiments:
Test in all cases: MIC by broth microdilution
E. coli = format: cell-based, Escherichia coli
Procedure: (§1) MICs of amikacin and gentamicin were determined using the broth microdilution method in cation-adjusted Mueller-Hinton broth, as recommended by the Clinical Laboratory Standard Institute (CLSI) guidelines (8). Amikacin and gentamicin sulfate (Fluorochem, Dertbyshire, UK) were tested over a range of dilutions from 0.25 to 256 μg/ml. A final inoculum of 5.10^5 CFU/ml of each strain was distributed in the 96 wells tray (Sarstedt, Ntimbrecht, Germany). All experiments were repeated in triplicate and E. coli ATCC 25922 was used as quality control. According to the CLSI breakpoints (9), Enterobacteriaceae isolates with gentamicin MICs≤4 and amikacin MICs≤16 mg/L were categorized as susceptible, while those with gentamicin MICs≥16 and amikacin MICs≥64 mg/L were categorized as resistant.
(§2) MICs of amikacin and gentamicin were determined as described above in Example 1.

K. pneumoniae = format: cell-based, Klebsiella pneumoniae; details: for MIC: Klebsiella pneumoniae, read-out: MIC
Procedure: as §1, §2

E. cloacae = format: cell-based, Enterobacter cloacae; details: for MIC: Enterobacter cloacae, read-out: MIC
Procedure: as §1, §2

P. stuartii = format: cell-based, Providencia stuartii; details: for MIC: Providencia stuartii, read-out: MIC
Procedure: as §1, §2

P. rettgeri = format: cell-based, Providencia rettgeri; details: AAC(2′)
Procedure: as §1, §2

S. marcescens = format: cell-based, Serratia marcescens; details: AAC(3)-I
Procedure: as §1, §2

A. baumannii = format: cell-based, Acinetobacter baumannii; details: Acinetobacter baumannii
Procedure: as §1, §2

[1] = isolate 13000, K. pneumoniae, APH(3′)-I + AAC(3)-V
[2] = isolate 22233, K. pneumoniae, AAC(3)-V
[3] = isolate N34, K. pneumoniae, rmtC
[4] = isolate R108, K. pneumoniae, armA
[5] = isolate R347, K. pneumoniae, AG susceptible
[6] = isolate R500, K. pneumoniae, armA
[7] = isolate R502, K. pneumoniae, rmtF
[8] = isolate R2160, K. pneumoniae, rmtG
[9] = isolate R2257, K. pneumoniae, armA
[10] = isolate S155, K. pneumoniae, AG susceptible
[11] = isolate 1110, E. cloacae, ANT(2″)
[12] = isolate HM, E. cloacae, AG susceptible
[13] = isolate R713, E. cloacae, AG susceptible
[14] = isolate R1433, E. cloacae, AG susceptible
[15] = isolate R2258, E. cloacae, armA
[16] = isolate BM2667, P. stuartii, APH(3′)-VI + AAC(2′)
[17] = isolate R265, P. stuartii, rmtC

Q: Which results are given for `NCC[C@H](O)C(=O)N[C@@H]1C[C@H](N)[C@@H](O[C@H]2O[C@H](CN)[C@@H](O)[C@H](O)[C@H]2O)[C@H](O)[C@H]1O[C@H]1O[C@H](CO)[C@@H](O)[C@H](N)[C@H]1O` [Amikacin]?
A: Amikacin Phenotype (E. coli; isolate pFCT4392, E. coli, AAC(3)-Ia): S (amikacin MICs≤16 mg/L were categorized as susceptible); Amikacin Phenotype (E. coli; isolate pWP701, E. coli, AAC(3)-IV): S (amikacin MICs≤16 mg/L were categorized as susceptible); MIC (K. pneumoniae; isolate 1800, K. pneumoniae, AAC(6′)-I + AAC(3)-I): 32 µg/mL; MIC (K. pneumoniae; [1]): 0.5 µg/mL; MIC (K. pneumoniae; [2]): 16 µg/mL (≈ 27.3 µM); MIC (K. pneumoniae; [3]): > 256 µg/mL; MIC (K. pneumoniae; [4]): > 256 µg/mL; MIC (K. pneumoniae; [5]): 4 µg/mL (≈ 6.83 µM); MIC (K. pneumoniae; [6]): > 256 µg/mL; MIC (K. pneumoniae; [7]): > 256 µg/mL; MIC (K. pneumoniae; [8]): > 256 µg/mL; MIC (K. pneumoniae; [9]): > 256 µg/mL; MIC (K. pneumoniae; [10]): 2 µg/mL (≈ 3.42 µM); MIC (K. pneumoniae; strain 1800, K. pneumoniae, AAC(6′)-I + AAC(3)-I): 32 µg/mL; MIC (K. pneumoniae; strain 13000, K. pneumoniae, APH(3′)-I + AAC(3)-V): 0.5 µg/mL; MIC (K. pneumoniae; strain 22233, K. pneumoniae, AAC(3)-V): 16 µg/mL (≈ 27.3 µM); MIC (K. pneumoniae; strain N34, K. pneumoniae, rmtC): > 512 µg/mL; MIC (K. pneumoniae; strain R108, K. pneumoniae, armA): > 512 µg/mL; MIC (K. pneumoniae; strain R347, K. pneumoniae, susceptible): 4 µg/mL (≈ 6.83 µM); MIC (K. pneumoniae; strain R500, K. pneumoniae, armA): > 512 µg/mL; MIC (K. pneumoniae; strain R502, K. pneumoniae, rmtF): > 512 µg/mL; MIC (K. pneumoniae; strain R2160, K. pneumoniae, rmtG): > 512 µg/mL; MIC (K. pneumoniae; strain R2257, K. pneumoniae, armA): > 512 µg/mL; MIC (K. pneumoniae; strain S155, K. pneumoniae, susceptible): 2 µg/mL (≈ 3.42 µM); Amikacin Phenotype (K. pneumoniae; [1]): S (amikacin MICs≤16 mg/L were categorized as susceptible); Amikacin Phenotype (K. pneumoniae; [2]): S (amikacin MICs≤16 mg/L were categorized as susceptible); Amikacin Phenotype (K. pneumoniae; [3]): R (amikacin MICs≥64 mg/L were categorized as resistant); Amikacin Phenotype (K. pneumoniae; [4]): R (amikacin MICs≥64 mg/L were categorized as resistant); Amikacin Phenotype (K. pneumoniae; [5]): S (amikacin MICs≤16 mg/L were categorized as susceptible); Amikacin Phenotype (K. pneumoniae; [6]): R (amikacin MICs≥64 mg/L were categorized as resistant); Amikacin Phenotype (K. pneumoniae; [7]): R (amikacin MICs≥64 mg/L were categorized as resistant); Amikacin Phenotype (K. pneumoniae; [8]): R (amikacin MICs≥64 mg/L were categorized as resistant); Amikacin Phenotype (K. pneumoniae; [9]): R (amikacin MICs≥64 mg/L were categorized as resistant); Amikacin Phenotype (K. pneumoniae; [10]): S (amikacin MICs≤16 mg/L were categorized as susceptible); MIC (E. cloacae; [11]): 1 µg/mL (≈ 1.71 µM); MIC (E. cloacae; [12]): 4 µg/mL (≈ 6.83 µM); MIC (E. cloacae; [13]): 4 µg/mL (≈ 6.83 µM); MIC (E. cloacae; [14]): 4 µg/mL (≈ 6.83 µM); MIC (E. cloacae; [15]): > 256 µg/mL; MIC (E. cloacae; strain 1110, E. cloacae, ANT(2″)): 1 µg/mL (≈ 1.71 µM); MIC (E. cloacae; strain HM, E. cloacae, susceptible): 4 µg/mL (≈ 6.83 µM); MIC (E. cloacae; strain R713, E. cloacae, susceptible): 4 µg/mL (≈ 6.83 µM); MIC (E. cloacae; strain R1433, E. cloacae, susceptible): 4 µg/mL (≈ 6.83 µM); MIC (E. cloacae; strain R2258, E. cloacae, armA): > 512 µg/mL; Amikacin Phenotype (E. cloacae; [11]): S (amikacin MICs≤16 mg/L were categorized as susceptible); Amikacin Phenotype (E. cloacae; [12]): S (amikacin MICs≤16 mg/L were categorized as susceptible); Amikacin Phenotype (E. cloacae; [13]): S (amikacin MICs≤16 mg/L were categorized as susceptible); Amikacin Phenotype (E. cloacae; [14]): S (amikacin MICs≤16 mg/L were categorized as susceptible); Amikacin Phenotype (E. cloacae; [15]): R (amikacin MICs≥64 mg/L were categorized as resistant); MIC (P. stuartii; [16]): 64 µg/mL; MIC (P. stuartii; isolate R38, P. stuartii, rmtC): > 256 µg/mL; MIC (P. stuartii; [17]): > 256 µg/mL; MIC (P. stuartii; strain BM2667, P. stuartii, APH(3′)-VI + AAC(2′)): 64 µg/mL; MIC (P. stuartii; strain R38, P. stuartii, rmtC): > 512 µg/mL; MIC (P. stuartii; strain R265, P. stuartii, rmtC): > 512 µg/mL; Amikacin Phenotype (P. stuartii; [16]): R (amikacin MICs≥64 mg/L were categorized as resistant); Amikacin Phenotype (P. stuartii; isolate R38, P. stuartii, rmtC): R (amikacin MICs≥64 mg/L were categorized as resistant); Amikacin Phenotype (P. stuartii; [17]): R (amikacin MICs≥64 mg/L were categorized as resistant); MIC (P. rettgeri; Providencia rettgeri, isolate 531, P. rettgeri, read-out: MIC): 16 µg/mL (≈ 27.3 µM); Amikacin Phenotype (P. rettgeri; isolate 531, P. rettgeri): S (amikacin MICs≤16 mg/L were categorized as susceptible); MIC (P. rettgeri; strain 531, P. rettgeri): 16 µg/mL (≈ 27.3 µM); MIC (S. marcescens; Serratia marcescens, isolate 4290, S. marcescens, read-out: MIC): 4 µg/mL (≈ 6.83 µM); Amikacin Phenotype (S. marcescens; isolate 4290, S. marcescens): S (amikacin MICs≤16 mg/L were categorized as susceptible); MIC (S. marcescens; strain 4290, S. marcescens): 4 µg/mL (≈ 6.83 µM); MIC (A. baumannii): 128 µg/mL (≈ 219 µM); MIC (A. baumannii; strain 4996, A. baumannii, AAC(6′)-I, read-out: MIC): 64 µg/mL (≈ 109 µM); MIC (A. baumannii; strain BM2580, A. baumannii, APH(3′)-VI, read-out: MIC): 64 µg/mL (≈ 109 µM); MIC (A. baumannii; strain R264, A. baumannii, armA, read-out: MIC): > 512 µg/mL; MIC (A. baumannii; strain R1395, A. baumannii, susceptible, read-out: MIC): 2 µg/mL (≈ 3.42 µM)
